Test results from patent US7060657B2, “Combinations of cyclohexanedione oxime herbicides and safeners” (Bayer CropScience GmbH, priority 2002, dated 2006).

Experiments:
Format in all cases: in vivo
[1] = tested on: Hordeum vulgare (summer barley); experiment: Post-emergence field trials, selectivity in barley (Examples 2-4)
Method: (§1) The numbers in the columns refer to the percentage damage to the crop or weed.
(§2) Winter wheat was grown outdoors on plots under natural outdoor conditions, and seeds of typical harmful plants were laid out. Treatment with the herbicide (A), the safener (B) and the herbicide-safener combination (A)+(B) was carried out after the harmful plants had emerged and the wheat was in the growth stage between 3 and 5 leaves. The effect of the composition was assessed 28 days after treatment by scoring visually in comparison with untreated controls.
(§3) Field trials were carried out according to the above Example 1 but using the crops barley and durum wheat and applying a mixture of clethodim and mefenpyr-diethyl.
(§4) Field trials were carried out according to the above Example 2 and applying a mixture of clethodim and fenoxaprop-P-ethyl plus mefenpyr-diethyl.
(§5) Field trials were carried out according to the above Example 2 and applying a mixture of tepraloxydim and mefenpyr-diethyl, or tepraloxydim and fenoxaprop-P-ethyl plus mefenpyr-diethyl.

[2] = tested on: Triticum durum desf. (durum wheat); experiment: Post-emergence field trials, selectivity in durum wheat (Examples 2-4)
Method: as §1, §2, §3, §4, §5

[3] = tested on: Triticum aestivum (winter wheat); experiment: Post-emergence field trial, selectivity in winter wheat (Example 1); details: 28 days after treatment
Method: as §1
(§6) Post-Emergence Effect on Weeds and Selectivity in Winter Wheat (Field Trials)
as §2

Phalaris minor = experiment: Post-emergence field trial, effect on weeds (Example 1); details: 28 days after treatment
Method: as §1, §6, §2
(§7) The percentage control of the weed species are shown in comparison with the expected values given in parentheses.

Alopecurus myosuroides = experiment: as above; details: 28 days after treatment
Method: as §1, §6, §2, §7

[4] = tested on: Triticum aestivum (winter wheat); experiment: Post-emergence field trial on winter wheat (Example 5); details: 3-5 leaf growth stage, 21 days after treatment
Method: as §2, with “The numbers in the columns refer to the percentage damage to the crop or weed. Winter” for “Winter”, “controls. Field trials were carried out according to the above Example 1 and applying a mixture of cycloxydim and fenoxaprop-P-ethyl+mefenpyr-diethyl to winter wheat and the weed Avena fatua at the 3–5 leaf growth stage. Assessment was 21 days after treatment.” for “controls.”

Avena fatua = experiment: Post-emergence field trial on weeds (Example 5); details: 3-5 leaf growth stage, 21 days after treatment
Method: as §2, with “The numbers in the columns refer to the percentage damage to the crop or weed. Winter” for “Winter”, “controls. Field trials were carried out according to the above Example 1 and applying a mixture of cycloxydim and fenoxaprop-P-ethyl+mefenpyr-diethyl to winter wheat and the weed Avena fatua at the 3–5 leaf growth stage. Assessment was 21 days after treatment.” for “controls.”

CCSC(C)CC1CC(=O)C(/C(CC)=N/OC/C=C/Cl)=C(O)C1 (racemic) [(A4), (±)-2-[(E)-1-[(E)-3-chloroallyloxyimino]propyl]-5-[2-(ethylthio)propyl]-3-hydroxycyclohex-2-enone]
Phytotox (%) on HORVS ([1]; 7.5 g ai/ha): 51%
Phytotox (%) on HORVS ([1]; 15 g ai/ha): 67%
Phytotox (%) on TRZDU ([2]; 7.5 g ai/ha): 32%
Phytotox (%) on TRZDU ([2]; 15 g ai/ha): 56%

CCCC(=NOCC)C1=C(O)CC(CC(C)SCC)CC1=O (racemic) [Compound A6, (±)-(EZ)-2-(1-ethoxyiminobutyl)-5-[2-(ethylthio)propyl]-3-hydroxycyclohex-2-enone]
Phytotox (%) on TRZAW ([3]; 72 g a.i./ha): 28%
Phytotox (%) on PHAMI (Phalaris minor; 72 g a.i./ha): 55%
Phytotox (%) on ALOMY (Alopecurus myosuroides; 72 g a.i./ha): 70%

CCOC(=O)C1=NN(c2ccc(Cl)cc2Cl)C(C)(C(=O)OCC)C1 (stereo not drawn) [(B1), ethyl 1-(2,4-dichlorophenyl)-5-(ethoxycarbonyl)-5-methyl-2-pyrazoline-3-carboxylate]
Phytotox (%) on HORVS ([1]; 100 g ai/ha): 0%
Phytotox (%) on TRZAW ([3]; 11 g a.i./ha): 0%
Phytotox (%) on TRZAW ([3]; 45 g a.i./ha): 0%
Phytotox (%) on PHAMI (Phalaris minor; 11 g a.i./ha): 0%
Phytotox (%) on PHAMI (Phalaris minor; 45 g a.i./ha): 0%
Phytotox (%) on ALOMY (Alopecurus myosuroides; 11 g a.i./ha): 0%
Phytotox (%) on ALOMY (Alopecurus myosuroides; 45 g a.i./ha): 0%
Phytotox (%) on TRZDU ([2]; 100 g ai/ha): 0%
Phytotox (%) on TRZAW ([4]; 71 g a.i./ha): 0%
Phytotox (%) on AVEFA (Avena fatua; 71 g a.i./ha): 0%

CCC(=NOC/C=C/Cl)C1=C(O)CC(C2CCOCC2)CC1=O (racemic) [(A7), (EZ)-(RS)-2-{1-[(2E)-3-chloroallyloxyimino]propyl}-3-hydroxy-5-perhydropyran-4-ylcyclohex-2-en-1-one]
Phytotox (%) on HORVS ([1]; 8.25 g ai/ha): 78%
Phytotox (%) on TRZDU ([2]; 8.25 g ai/ha): 70%

CCCC(=NOCC)C1=C(O)CC(C2CCCSC2)CC1=O (racemic) [Compound A5, (±)-2-[1-(ethoxyimino)butyl]-3-hydroxy-5-thian-3-ylcyclohex-2-enone]
Phytotox (%) on TRZAW ([4]; 40 g a.i./ha): 16%
Phytotox (%) on AVEFA (Avena fatua; 40 g a.i./ha): 65%
